Measurements: US11319329B2, “Inhibitors of Bruton's tyrosine kinase and methods of their use” (JANSSEN PHARMACEUTICA NV, priority 2015, dated 2022)

Target: unphosphorylated-BTK kinase domain (UP-BTK), GST-tagged human BTK (389-659aa) (Homo sapiens (Human), UniProt Q06187)
Test: BTK kinase Lanthascreen binding assay
Settings: for BTK_I_binding pIC50: 60 minutes incubation, negative log of the IC50 in molar
Protocol: BTK Kinase Lanthascreen Binding Assay:
A BTK kinase lanthascreen binding assay monitors compound binding to unphosphorylated-BTK kinase domain (UP-BTK), by competing with a fluorescent labeled tracer. […] Data were analyzed using Xlfit™ version 5.3 from ID Business Solutions (Guildford), Microsoft Excel add-in. pIC50 refers to the negative log of the IC50 in molar

[1] = unphosphorylated BTK kinase domain, Lanthascreen

unphosphorylated-BTK kinase domain (UP-BTK), GST-tagged human BTK (389-659aa), sequence (Q06187 389-659): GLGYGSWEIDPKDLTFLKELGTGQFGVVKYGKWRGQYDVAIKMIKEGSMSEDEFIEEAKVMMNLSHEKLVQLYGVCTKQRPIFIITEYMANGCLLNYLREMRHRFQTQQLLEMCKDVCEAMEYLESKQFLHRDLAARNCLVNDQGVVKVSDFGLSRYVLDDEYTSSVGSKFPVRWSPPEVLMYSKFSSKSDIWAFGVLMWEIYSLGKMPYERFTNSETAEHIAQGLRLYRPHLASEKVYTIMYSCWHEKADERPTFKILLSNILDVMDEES

Row | Compound | BTK_I_binding pIC50 (50 nM Tracer 236) | further results
1 | Cc1cc(Oc2ccccc2)ccc1N1C(=O)Nc2c(C(=O)N[C@H]3CCCC[C@@H]3NC=O)sc3nccc1c23 [Example 54, N-((1S,2S)-2-Formamidocyclohexyl)-5-(2-methyl-4-phenoxyphenyl)-4-oxo-4,5-dihydro-3H-1-thia-3,5,8-triazaacenaphthylene-2-carboxamide] |  | BTK_I_binding pIC50 [1]: 5.90
2 | C=CC(=O)NC1CCCC[C@H]1NC(=O)c1sc2nccc3c2c1NC(=O)N3c1cnc(OCC(C)C)cc1C (single isomer, unassigned) [Example 352, N-((1R,2S)-2-Acrylamidocyclohexyl)-5-(*R)-(6-isobutoxy-4-methylpyridin-3-yl)-4-oxo-4,5-dihydro-3H-1-thia-3,5,8-triazaacenaphthylene-2-carboxamide] | <6 | 
3 | CCC(=O)N[C@H]1CCC[C@H]1NC(=O)c1sc2nccc3c2c1NC(=O)N3c1ccc(Oc2ccccc2)nc1C (single isomer, unassigned) [Example 353, 5-(*S)-(2-Methyl-6-phenoxypyridin-3-yl)-4-oxo-N-((1R,2R)-2-propionamidocyclopentyl)-4,5-dihydro-3H-1-thia-3,5,8-triazaacenaphthylene-2-carboxamide] | <6 | 
4 | Cc1cc(Oc2ccccc2)ccc1N1C(=O)Nc2c(C(=O)N[C@@H]3CCC[C@H]3O)sc3nccc1c23 (single isomer, unassigned) [Example 4] |  | BTK_I_binding pIC50 [1]: 7.73
5 | C=CC(=O)N[C@H]1CCC[C@H]1NC(=O)c1sc2nccc3c2c1NC(=O)N3c1ccc(Oc2cccnc2)cc1 (relative stereo) [Example 300, N-((1R,2S)-2-Acrylamidocyclopentyl)-4-oxo-5-(*S)-(4-(pyridin-3-yloxy)phen)-4,5-dihydro-3H-1-thia-3,5,8-triazaacenaphthylene-2-carboxamide] | 8.27 | 
6 | Cc1cc(Oc2ccccc2)ccc1N1C(=O)Nc2c(C(=O)N[C@H]3CC[C@H](O)CC3)sc3nccc1c23 (single isomer, unassigned) [Example 85, N-((1R,4R)-4-Hydroxycyclohexyl)-5-(*S)-(2-methyl-4-phenoxyphenyl)-4-oxo-4,5-dihydro-3H-1-thia-3,5,8-triazaacenaphthylene-2-carboxamide] |  | IC50 (read-out: BTK_I_binding pIC50 (converted)): 21.4 nM
7 | C=CC(=O)N[C@H]1CCCC[C@H]1NC(=O)c1sc2nccc3c2c1NC(=O)N3c1cnc(CC(C)C)cc1C (single isomer, unassigned) [Example 357, N-((1R,2S)-2-Acrylamidocyclohexyl)-5-(*S)-(6-isobutyl-4-methylpyridin-3-yl)-4-oxo-4,5-dihydro-3H-1-thia-3,5,8-triazaacenaphthylene-2-carboxamide] | 7.98 | 
